Measured values as given in patent US4228160A (priority 1978, dated 1980).
Converted amounts (≈) assume the structure as drawn. Read-outs that look alike come from different tables or passages of the source.

How the values were obtained:
[1] = Solubility tests at different pH; format: physicochemical; conditions: pH=2
[2] = Stability in solubility test (thin layer chromatography); format: physicochemical; conditions: under the conditions of the solubility tests
[3] = Diffusion test through semipermeable membrane; format: physicochemical
Text: The two sides of a diffusion cell are separated by a semipermeable membrane.

ovariectomized rat = experiment: Pregnancy protective activity in the ovariectomized rat; format: in vivo, rat (CFY strain); conditions: per os
Text: Test animal: female rat of an average weight of 308 g., derived from 18 CFY strain
The ovary of the animals was removed on the 17th day of pregnancy and the animals were placed individually in cages.
6 animals were used as control.
On the 19th day and 20th day in the morning of the pregnancy the treatment was repeated.

inflammation = experiment: Speed of onset and duration of antiinflammatory activity, Carrageenin feet inflammation; format: in vivo, rat (female, strain CFY); conditions: simultaneous administration with Carrageenin (FIG. 5)
Experimental: The test compound, the reference substance, the animals, the treatment, doses, investigation are all the same as described above. The differences can be found below.
In this series of tests the following investigations were carried out:
2. Carrageenin was given 1, 2 and 3 hours after the administration of the antiinflammatory agent and the results were evaluated after 3 hours. The animals were exterminated with ether and the weight of the separated untreated feet and feet treated with Carrageenin was measured. The feet were separated above the metacarpus.
The weight difference of the untreated and treated feet in the same animal was calculated. […] The antiinflammatory activity was calculated in percent and the results are plotted in FIGS. 4 and 5.

in vivo = experiment: in vivo; parameters: species or system rat (CFY strain); conditions: rat, in vivo, po, 5 mg./kg. p.o.
Experimental: (§1) Subacute toxicity test was carried out in male and female animals derived from CFY strain and 10--10 animals were treated for each substance and for male and female rats each.
(§2) At the beginning of the investigation the animals were 7 weeks old and weighed 150-170 g. The animals were kept at a constant temperature (22°-24° C.) and under constant relative humidity (45-50%). During treatment the animals were on a standard diet and drank water ad libitum.
(§3) The animals were treated daily at the same time of the day, in the morning. The test compound and the reference substance were administered in the form of a suspension prepared with 1% methyl cellulose through an oesophagial sound. The animals of the control group obtained 1% methyl cellulose per os. The weight increase of the animals and their clinical states were registered during the treatment every week.
(§4) 1. Control: 1% methyl cellulose suspension 0.2 ml./100 g. per os;
(§5) Investigation: the animals were treated for 28 days.

rat [4] = experiment: in vivo; parameters: species or system rat (CFY strain)
Experimental: as §1, §2, §3, §4, §5

rat [5] = format: in vivo, rat (Long-Evans strain)
Experimental: As a reference compound pure Indomethacin is used.
Subacute toxicity test was carried out in male and female animals derived from Long-Evans strain, 10--10 animals were treated for each test compound and both for female and male animals. At the beginning of the test the animals were 7 week old, of an average bodyweight of 140-160 g. The animals were kept at constant temperature (22°-24° C.) and under constant relative humidity (45-50%). During the treatment the animals were on a standard diet and drank water ad libitum.
The subacute toxicity test corresponds to a 4 weeks' treatment period. The animals were treated daily at the same time in the morning. The complex of a molar ratio 1:1 and the reference substance were administered in the form of a suspension in 1% methyl cellulose through an oesophaged sound. The animals of the control group get 1% methyl cellulose per os. The weight increase and the clinical state of the animals were registered during the treatment every week.
1. Control: 1% methyl cellulose, 0.2 ml./100 g. per os
The animals were treated for 28 days. On the 29th day the living animals were exterminated with ether and the stomach and the duodenum were prepared. Also the stomach and duodenum of the animals perished during the treatment were prepared.
In each case the mucous membrane of the stomach, bile and intestine were examined macroscopically and the number of the eventual ulcers and erosions was determined.

[6] = cited from earlier work
[7] = aqueous solution, cited from earlier work
[8] = number related to treated animals, 28 days p.o., 40.3 mg./kg. CD-Ind or 5.0 mg./kg. Ind., control 0/10
[9] = 16 mg./kg. 1:1 complex or 5 mg./kg. Indomethacin p.o., control 0/10
[10] = 28 days, 16 mg./kg 1:1 complex or 5 mg./kg. Indomethacin p.o., control 0/10

COc1ccc2c(c1)c(CC(=O)O)c(C)n2C(=O)c1ccc(Cl)cc1 [Indomethacin, 1-(p-Chloro-benzoyl)-5-methoxy-2-methyl-indol-3-acetic acid]
solubility [1]: substantially insoluble
decomposition of Indomethacin [2]: not decomposed
time to equilibrium ([3]; pure buffer on other side): 4 h
distribution of Indomethacin ([3]; β-cyclodextrin buffer solution on other side, 4 hours): more Indomethacin on the β-cyclodextrin side after 4 hours, than on the Indomethacin side
foetus retention compared with the control (ovariectomized rat): significantly increased the percentage of the foetus retention
foeti left alive (ovariectomized rat; 1.25 mg./kg. Indomethacin on 18th day, repeated 19th and 20th day, dissected 21st day, control 16.1%): 58.8%
antiinflammatory activity 6 hours after treatment (inflammation): inflammation increases after 6 hours
mortality at 336 h (in vivo; by the 14th day, read-out: dead animals, male): 80%
mortality at 504 h (in vivo; by the 21st day, read-out: dead animals, female): 60%
erosion, female (rat [4]; [8]): 7/10
ulcer, female (rat [4]; [8]): 6/10
ulcer, male (rat [4]; [8]): 7/10
erosion, male (rat [4]; number related to treated animals, 28 days p.o., 40.3 mg./kg. CD-Ind or 5.0 mg./kg. Ind., control 1/10): 9/10
Average body weight (rat [4]; week 0, control 152.5): 164.5 g
Average body weight (rat [4]; week 0, control 154.5): 161.5 g
Average body weight (rat [4]; week 1, control 183.0): 182.0 g
Average body weight (rat [4]; week 1, control 196.5): 210.7 g
Average body weight (rat [4]; week 2, control 209.0): 177.5 g
Average body weight (rat [4]; week 2, control 240.5): 212.5 g
Average body weight (rat [4]; week 3, control 222.0): 206.5 g
Average body weight (rat [4]; week 3, control 276.5): 287.5 g
Average body weight (rat [4]; week 4, control 241.0): 221.2 g
Average body weight (rat [4]; week 4, control 300.5): 320.0 g
animals with ulcers, female (rat [5]; 5 mg./kg.): 70%
animals with ulcers, male (rat [5]; 5 mg./kg.): 80%
Lethality, 7th day, female (rat [5]; [9]): 1/10
Lethality, 7th day, male (rat [5]; [9]): 4/10
Lethality, 14th day, female (rat [5]; [9]): 2/10
Lethality, 14th day, male (rat [5]; [9]): 4/10
Lethality, 21st day, female (rat [5]; [9]): 3/10
Lethality, 21st day, male (rat [5]; [9]): 5/10
Lethality, 28th day, female (rat [5]; [9]): 6/10
Lethality, 28th day, male (rat [5]; [9]): 6/10
ulcer, female (rat [5]; [10]): 7/10
ulcer, male (rat [5]; [10]): 8/10
erosion, female (rat [5]; 28 days, 16 mg./kg 1:1 complex or 5 mg./kg. Indomethacin p.o., control 2/10): 10/10
erosion, male (rat [5]; 28 days, 16 mg./kg 1:1 complex or 5 mg./kg. Indomethacin p.o., control 3/10): 10/10
clinical symptoms (rat [5]; from third day, 5 mg./kg. Indomethacin or 16 mg./kg. 1:1 complex): bradypnoe and depression
original solubility ([6]; 35° C., aqueous, without cyclodextrin): 350 µM
solubility increased by cyclodextrin ([6]; aqueous solution with cyclodextrin): 980 µM (≈ 351 µg/mL)
solubility increase ([6]; with cyclodextrin vs original): 2.8 times
hydrolysis ([7]; in the presence of glucose): hydrolyses rapidly
hydrolysis ([7]; in the presence of α-cyclodextrin): slowly
hydrolysis ([7]; in the presence of β-cyclodextrin): inhibits hydrolysis
